Measurements as given in patent publication US20150176022A1, “HERBICIDE-RESISTANT SUNFLOWER PLANTS, POLYNUCLEOTIDES ENCODING HERBICIDE=RESISTANT ACETO HYDROXY ACID SYNTHASE LARGE SUBUNIT PROTEINS, AND METHODS OF USE” (priority 2013, published 2015).

Tests used:
Experiment in all cases: Greenhouse whole-plant imazapir dose response (Example 8)
Type in all cases: in vivo, Helianthus annuus
Settings in all cases: 14 DAT
[1] = system: sunflower TH1 (Hybrid, A205V)
Procedure: (§1) A greenhouse study was conducted to quantify and contrast the imazapir sensitivity of the mutants A122T and A205V in different genetic backgrounds at the whole plant level in sunflower. Seeds of the different sunflower lines that were used in this study were obtained under field conditions.
(§2) Seeds were sown in Petri dishes and, after germination, plantlets were transplanted to pots of 10 cm of diameter in a potting media consisting of equal parts of vermiculite, soil and sand. Plants were grown in a greenhouse under natural light conditions supplemented with 400 W sodium halide lamps to provide a 16 hrs daylength. Day/night temperatures were 25 and 20° C., respectively. At the V2 stage 10 plants of each genotype were randomly assigned to each treatment consisting of […] imazapir doses (0, 40, 80, 160, 240, 320, 400 and 480 g ai/ha), and a zero-time biomass determination. Experiment was arranged as a randomized block design with a full factorial (sunflower line×treatment) arrangement of treatments and 10 replications.
(§3) On the day of herbicide application ten plants of each genotype were cut at the cotyledonal node and dried at 60° C. for 48 hrs zero-time for dried weight determination. […] Height was determined as the distance between the cotyledonal node and the apex of each plant. For root biomass determination, each plant was taken from the pot and the potting media was washed out from the roots. Above ground biomass data from each line were converted to biomass accumulation after application by subtracting the appropriate average zero-time biomass from each sample. Dry biomass data were converted to percentages of the untreated control plants within each line to allow direct comparisons between groups.

[2] = system: sunflower GM1606 (Manteiner Line, A122T)
Procedure: as §1, §2, §3

[3] = system: sunflower TH6 (Hybrid, A122T)
Procedure: as §1, §2, §3

In the case of `CC(C)C1(C)N=C(c2ncccc2C(=O)O)NC1=O` (stereo not drawn) [imazapir, imazapyr], the “Phytotoxicity Index” value ([1]; 0.5× (40 g ai/ha)) is reported as 0, the “biomass accumulation (dry biomass, % of untreated)” value ([1]; 0.5× (40 g ai/ha)) is reported as 95.0% and the “plant height (% of untreated)” value ([1]; 0.5× (40 g ai/ha)) is reported as 99.5%. For the same compound, the “root dry weight (% of untreated)” value ([1]; 0.5× (40 g ai/ha)) was 79.4%, the “Phytotoxicity Index” value ([1]; 1× (80 g ai/ha)) was 0 and the “biomass accumulation (dry biomass, % of untreated)” value ([1]; 1× (80 g ai/ha)) was 89.6%. For the same compound, the “plant height (% of untreated)” value ([1]; 1× (80 g ai/ha)) was 99.5%, the “root dry weight (% of untreated)” value ([1]; 1× (80 g ai/ha)) was 70.7% and the “Phytotoxicity Index” value ([1]; 2× (160 g ai/ha)) was 1.8. For the same compound, the “biomass accumulation (dry biomass, % of untreated)” value ([1]; 2× (160 g ai/ha)) was 75.5%, the “plant height (% of untreated)” value ([1]; 2× (160 g ai/ha)) was 78.6% and the “root dry weight (% of untreated)” value ([1]; 2× (160 g ai/ha)) was 69.6%. The “Phytotoxicity Index” value ([1]; 3× (240 g ai/ha)) was 6.4, the “biomass accumulation (dry biomass, % of untreated)” value ([1]; 3× (240 g ai/ha)) was 60.4% and the “plant height (% of untreated)” value ([1]; 3× (240 g ai/ha)) was 48.4%. For the same compound, the “root dry weight (% of untreated)” value ([1]; 3× (240 g ai/ha)) was 42.3%, the “Phytotoxicity Index” value ([1]; 4× (320 g ai/ha)) was 8.0 and the “biomass accumulation (dry biomass, % of untreated)” value ([1]; 4× (320 g ai/ha)) was 46.5%. The “plant height (% of untreated)” value ([1]; 4× (320 g ai/ha)) was 28.9%, the “root dry weight (% of untreated)” value ([1]; 4× (320 g ai/ha)) was 38.6% and the “Phytotoxicity Index” value ([1]; 5× (400 g ai/ha)) was 8.9. For the same compound, the “biomass accumulation (dry biomass, % of untreated)” value ([1]; 5× (400 g ai/ha)) was 38.9%, the “plant height (% of untreated)” value ([1]; 5× (400 g ai/ha)) was 25.3% and the “root dry weight (% of untreated)” value ([1]; 5× (400 g ai/ha)) was 34.7%. The “Phytotoxicity Index” value ([1]; 6× (480 g ai/ha)) was 9.0, the “biomass accumulation (dry biomass, % of untreated)” value ([1]; 6× (480 g ai/ha)) was 33.9% and the “plant height (% of untreated)” value ([1]; 6× (480 g ai/ha)) was 27.1%. For the same compound, the “root dry weight (% of untreated)” value ([1]; 6× (480 g ai/ha)) was 23.1%, the “biomass accumulation (dry biomass, % of untreated)” value ([2]; 0.5× (40 g ai/ha)) was 100.0% and the “plant height (% of untreated)” value ([2]; 0.5× (40 g ai/ha)) was 97.0%. For the same compound, the “root dry weight (% of untreated)” value ([2]; 0.5× (40 g ai/ha)) was 100%, the “biomass accumulation (dry biomass, % of untreated)” value ([2]; 1× (80 g ai/ha)) was 100.0% and the “plant height (% of untreated)” value ([2]; 1× (80 g ai/ha)) was 95.7%. The “root dry weight (% of untreated)” value ([2]; 1× (80 g ai/ha)) was 100.0%, the “biomass accumulation (dry biomass, % of untreated)” value ([2]; 2× (160 g ai/ha)) was 97.6% and the “plant height (% of untreated)” value ([2]; 2× (160 g ai/ha)) was 95.2%. The “root dry weight (% of untreated)” value ([2]; 2× (160 g ai/ha)) was 92.5%, the “biomass accumulation (dry biomass, % of untreated)” value ([2]; 3× (240 g ai/ha)) was 95.4% and the “plant height (% of untreated)” value ([2]; 3× (240 g ai/ha)) was 95.7%. For the same compound, the “root dry weight (% of untreated)” value ([2]; 3× (240 g ai/ha)) was 85.2%, the “biomass accumulation (dry biomass, % of untreated)” value ([2]; 4× (320 g ai/ha)) was 90.5% and the “plant height (% of untreated)” value ([2]; 4× (320 g ai/ha)) was 94.1%. The “root dry weight (% of untreated)” value ([2]; 4× (320 g ai/ha)) was 87.0%, the “biomass accumulation (dry biomass, % of untreated)” value ([2]; 5× (400 g ai/ha)) was 85.3% and the “plant height (% of untreated)” value ([2]; 5× (400 g ai/ha)) was 94.3%. The “root dry weight (% of untreated)” value ([2]; 5× (400 g ai/ha)) was 88.1%, the “biomass accumulation (dry biomass, % of untreated)” value ([2]; 6× (480 g ai/ha)) was 83.0% and the “plant height (% of untreated)” value ([2]; 6× (480 g ai/ha)) was 91.4%. The “root dry weight (% of untreated)” value ([2]; 6× (480 g ai/ha)) was 69.5%, the “Phytotoxicity Index” value ([3]; 0.5× (40 g ai/ha)) was 0.5 and the “biomass accumulation (dry biomass, % of untreated)” value ([3]; 0.5× (40 g ai/ha)) was 100%. For the same compound, the “plant height (% of untreated)” value ([3]; 0.5× (40 g ai/ha)) was 99.2%, the “root dry weight (% of untreated)” value ([3]; 0.5× (40 g ai/ha)) was 100% and the “Phytotoxicity Index” value ([3]; 1× (80 g ai/ha)) was 0.5. For the same compound, the “biomass accumulation (dry biomass, % of untreated)” value ([3]; 1× (80 g ai/ha)) was 97.2%, the “plant height (% of untreated)” value ([3]; 1× (80 g ai/ha)) was 98.6% and the “root dry weight (% of untreated)” value ([3]; 1× (80 g ai/ha)) was 98.1%. The “Phytotoxicity Index” value ([3]; 2× (160 g ai/ha)) was 0.5, the “biomass accumulation (dry biomass, % of untreated)” value ([3]; 2× (160 g ai/ha)) was 97.9% and the “plant height (% of untreated)” value ([3]; 2× (160 g ai/ha)) was 100.3%. The “root dry weight (% of untreated)” value ([3]; 2× (160 g ai/ha)) was 96.2%, the “Phytotoxicity Index” value ([3]; 3× (240 g ai/ha)) was 0.5 and the “biomass accumulation (dry biomass, % of untreated)” value ([3]; 3× (240 g ai/ha)) was 98.2%.
